Experimental data published in ChEMBL document CHEMBL5380844, “Discovery of a Novel, Potent, Orally Active, and Safe Inhibitor Targeting Human Mitochondrial RNA Polymerase” (J Med Chem, 2023).
Converted amounts (≈) assume the structure as drawn. The source made the active and inactive calls. The rule behind the calls is not given here.

Experiments:
[1] = AUC (0 to infinity) in ICR mouse at 1 mg/kg, iv measured upto 24 hrs by LC-MS/MS analysis; type: ADME, organism-based; design: time < 24 hrs, dose 1 mg/kg, route iv; conditions: in vivo
[2] = AUC (0 to t) in ICR mouse at 10 mg/kg, po measured upto 24 hrs by LC-MS/MS analysis; type: ADME, organism-based; design: dose 10 mg/kg, time < 24 hrs, route po; conditions: in vivo
[3] = MRT in ICR mouse at 1 mg/kg, iv measured upto 24 hrs by LC-MS/MS analysis; type: ADME, organism-based; conditions: in vivo
[4] = Half life in ICR mouse at 1 mg/kg, iv measured upto 24 hrs by LC-MS/MS analysis; type: ADME, organism-based; conditions: in vivo
[5] = Clearance in ICR mouse at 1 mg/kg, iv measured upto 24 hrs by LC-MS/MS analysis; type: ADME, organism-based; conditions: in vivo
[6] = Oral bioavailability in ICR mouse at 10 mg/kg measured upto 24 hrs by LC-MS/MS analysis; type: ADME, organism-based; conditions: in vivo
[7] = Cmax in ICR mouse at 10 mg/kg, po measured upto 24 hrs by LC-MS/MS analysis; type: ADME, organism-based; design: time < 24 hrs, dose 10 mg/kg, route po; conditions: in vivo
[8] = Half life in ICR mouse at 10 mg/kg, po measured upto 24 hrs by LC-MS/MS analysis; type: ADME, organism-based; conditions: in vivo
[9] = Cmax in ICR mouse at 1 mg/kg, iv measured upto 24 hrs by LC-MS/MS analysis; type: ADME, organism-based; design: time < 24 hrs, dose 1 mg/kg, route iv; conditions: in vivo
[10] = tested on: A2780; assay: Antiproliferative activity against human A2780 cells incubated for 168 hrs by SRB method; type: functional, cell-based; conditions: A2780, 168 h
[11] = AUC (0 to t) in ICR mouse at 1 mg/kg, iv measured upto 24 hrs by LC-MS/MS analysis; type: ADME, organism-based; design: time < 24 hrs, dose 1 mg/kg, route iv; conditions: in vivo
[12] = Inhibition of ND1 transcript level in human A2780 cells at 500 nM measured after 12 hrs by RT-qPCR analysis relative to control; type: functional
[13] = Volume of distribution at steady state in ICR mouse at 1 mg/kg, iv measured upto 24 hrs by LC-MS/MS analysis; type: ADME, organism-based; conditions: in vivo, read-out: Vdss
[14] = Acute toxicity in Balb/c mouse assessed as effect on liver 100 mg/kg measured after 27 days by H and E staining based analysis; type: organism-based; conditions: in vivo, 648 h, time 27 day
[15] = Acute toxicity in Balb/c mouse assessed as effect on kidney 100 mg/kg measured after 27 days by H and E staining based analysis; type: organism-based; conditions: in vivo, 648 h, time 27 day
[16] = tested on: NCI-H3122; assay: Antiproliferative activity against human NCI-H3122 cells incubated for 168 hrs by SRB method; type: functional, cell-based; conditions: NCI-H3122, 168 h
[17] = tested on: A2780; assay: Antitumor activity against human A2780 cells xenografted in BALB/c nude mouse model assessed as induction of tumor shrinkage 100 mg/kg by H and E staining based immunohistochemical analysis; type: functional, organism-based
[18] = Toxicity in Balb/c mouse assessed as effect on lung at 100 mg/kg by H and E staining based analysis; type: organism-based; conditions: in vivo
[19] = tested on: MIA PaCa-2; assay: Antiproliferative activity against human MIA PaCa-2 cells incubated for 168 hrs by SRB method; type: functional, cell-based; conditions: MIA PaCa-2, 168 h
[20] = Toxicity in Balb/c mouse assessed as effect on spleen at 100 mg/kg by H and E staining based analysis; type: organism-based; conditions: in vivo
[21] = tested on: A2780; assay: Antitumor activity against human A2780 cells xenografted in BALB/c nude mouse model assessed as reduction in mitochondrial DNA transcript level at 100 mg/kg, po administered daily; type: functional, organism-based
[22] = tested on: HeLa; assay: Antiproliferative activity against human HeLa cells incubated for 168 hrs by SRB method; type: functional, cell-based
[23] = tested on: DLD-1; assay: Antiproliferative activity against human DLD-1 cells incubated for 168 hrs by SRB method; type: functional, cell-based; conditions: DLD-1, 168 h
[24] = tested on: NCI-H1975; assay: Antiproliferative activity against human NCI-H1975 cells incubated for 168 hrs by SRB method; type: functional, cell-based; conditions: NCI-H1975, 168 h
[25] = Toxicity in Balb/c mouse assessed as effect on heart at 100 mg/kg by H and E staining based analysis; type: organism-based; conditions: in vivo
[26] = tested on: IMR-90; assay: Antiproliferative activity against human IMR-90 cells incubated for 168 hrs by SRB method; type: functional, cell-based; conditions: IMR-90, 168 h
[27] = tested on: HepG2; assay: Antiproliferative activity against human HepG2 cells incubated for 168 hrs by SRB method; type: functional, cell-based; conditions: HepG2, 168 h
[28] = tested on: MDA-MB-231; assay: Antiproliferative activity against human MDA-MB-231 cells incubated for 168 hrs by SRB method; type: functional, cell-based; conditions: MDA-MB-231, 168 h
[29] = tested on: A549; assay: Antiproliferative activity against human A549 cells incubated for 168 hrs by SRB method; type: functional, cell-based; conditions: A549, 168 h
[30] = tested on: MDA-MB-468; assay: Antiproliferative activity against human MDA-MB-468 cells incubated for 168 hrs by SRB method; type: functional, cell-based; conditions: MDA-MB-468, 168 h
[31] = tested on: A2780; assay: Antitumor activity against human A2780 cells xenografted in BALB/c nude mouse model assessed as reduction in tumor weight at 100 mg/kg, po administered daily and measured after 27 days relative to control; type: functional; design: scale not given: the % may be the effect or the level left; conditions: time 27 day
[32] = Toxicity in Balb/c mouse assessed as effect on kidney at 100 mg/kg by H and E staining based analysis; type: organism-based; conditions: in vivo
[33] = tested on: A2780; assay: Antitumor activity against human A2780 cells xenografted in BALB/c nude mouse model assessed as reduction in ND1 expression in liver at 100 mg/kg, po administered daily; type: functional, organism-based
[34] = Solubility in PBS at pH 7.4; type: physicochemical
[35] = Toxicity in Balb/c mouse assessed as effect on liver at 100 mg/kg by H and E staining based analysis; type: organism-based; conditions: in vivo
[36] = Antiproliferative activity against human PBMC cells incubated for 168 hrs by SRB method; type: functional, cell-based

**Q.** What does the source list for `Cc1ccc(-c2cc(=O)oc3cc(O[C@H](C)C(=O)N4CC5CCC(C4)N5)ccc23)c(C)c1`?
**A.** AUC(0-inf) [1]: 351 ng·h/mL; AUC(0-t) at 24 h [2]: 403 ng·h/mL; MRT [3]: 2.05 h; half-life [4]: 1.61 h; clearance [5]: 47.6 mL/min/kg; bioavailability [6]: 13.7%; Cmax [7]: 66.6 ng/mL; half-life [8]: 2.67 h; Cmax [9]: 234 ng/mL; IC50 [10]: 27 nM; AUC(0-t) at 24 h [11]: 294 ng·h/mL; inhibition at 0.5 µM [12]: 7%; Vd [13]: 5.84 L/kg

**Q.** For `C[C@@H](Oc1ccc2c(-c3ccc(F)cc3Cl)cc(=O)oc2c1)C(=O)N1CCC[C@H](C(=O)O)C1`, which Activity [14] is on record?
**A.** The Activity was “Non-Toxic”.

**Q.** What about the Activity [15] of the same compound?
**A.** Its Activity is “Non-Toxic”.

**Q.** What about the IC50 [16] of the same compound?
**A.** Its IC50 is > 10000 nM.

**Q.** And the Activity [17]?
**A.** Its Activity is “Active”.

**Q.** What about the Activity [18] of the same compound?
**A.** The Activity was “Non-Toxic”.

**Q.** What about the IC50 [19] of the same compound?
**A.** The IC50 was 152 nM.

**Q.** And the Activity [20]?
**A.** Its Activity is “Non-Toxic”.

**Q.** And the Activity [21]?
**A.** Its Activity is “Active”.

**Q.** What about the IC50 [22] of the same compound?
**A.** The IC50 was 1050 nM.

**Q.** And the IC50 [23]?
**A.** The IC50 was 142 nM.

**Q.** What about the IC50 [24] of the same compound?
**A.** The IC50 was 221 nM.

**Q.** And the Activity [25]?
**A.** The Activity was “Non-Toxic”.

**Q.** What about the IC50 [26] of the same compound?
**A.** The IC50 was > 50000 nM.

**Q.** And the IC50 [27]?
**A.** Its IC50 is 168 nM.

**Q.** And the IC50 [28]?
**A.** The IC50 was > 10000 nM.

**Q.** And the IC50 [29]?
**A.** The IC50 was 881 nM.

**Q.** What about the IC50 [10] of the same compound?
**A.** The IC50 was 138 nM.

**Q.** And the IC50 [30]?
**A.** Its IC50 is 189 nM.

**Q.** What about the Activity [31] of the same compound?
**A.** Its Activity is 56.75%.

**Q.** And the Activity [32]?
**A.** The Activity was “Non-Toxic”.

**Q.** And the Activity [33]?
**A.** The Activity was “Active”.

**Q.** What about the solubility [34] of the same compound?
**A.** Its solubility is 6.49 µg/mL (≈ 13.7 µM).

**Q.** And the inhibition at 0.5 µM [12]?
**A.** The inhibition at 0.5 µM was 25%.

**Q.** And the Activity [35]?
**A.** The Activity was “Non-Toxic”.

**Q.** And the IC50 [36]?
**A.** The IC50 was > 50000 nM.
